Data as given in PMC9676650, “Binding pocket stabilization by high-throughput screening of yeast display libraries” (Frontiers in Molecular Biosciences, 2022).
Positions count from the first letter of the chain named.

Experiments:
FKBP51 WT = biological target: T1, FKBP51 WT (Homo sapiens, UniProt Q13451); assay: Competitive fluorescence polarization assay, FKBP51 WT; conditions: 20 nM FKBP51 WT; 1 nM FK [431]-TA tracer; 30 min room temperature; fitted as KI in competitive binding model; read-out: Kd-value (ligand binding constant, competitive fluorescence polarization)
T1 construct: made in house; host or cells: E. coli BL21 (DE3)
T1 sequence (Q13451 1-140): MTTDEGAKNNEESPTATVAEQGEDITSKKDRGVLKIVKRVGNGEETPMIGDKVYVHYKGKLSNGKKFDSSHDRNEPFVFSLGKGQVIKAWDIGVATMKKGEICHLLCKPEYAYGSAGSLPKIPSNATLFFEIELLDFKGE
Excerpt: (§1) All ligands and tracers used for fluorescence polarization assays had purities of more than 95%. The following ligands and tracers were used for fluorescence polarization and FACS screening experiments: •SAFit-FL tracer (1): Fluorescein conjugated analog of the iFit ligand class. •Mcyc-TA tracer (2): TAMRA conjugated macrocyclic ligand (5). •FK [431]-TA tracer (3): TAMRA conjugated FK [431] ligand (6). •SAFit1 ligand (4): analog of the iFit ligand class. •macrocyclic ligand (5):macrocyclic analog of the SAFit class ligands. •FK [431] ligand (6):bicyclic analog of the immunosuppressive drug FK506
(§2) In order to rule out artifacts introduced by the fluorophore of the tracers, competitive fluorescence polarization assays were carried out. Therefore, a serial dilution of an FK [431] ligand (6), SAFit1 (4), or a macrocyclic ligand 5) (Supplementary Figure S8) in assay buffer was placed in a 384-well assay plate. To the compounds, a mixture of the respective protein (20 nM WT, 10–40 nM G64S or 80–100 nM D68Y) and 1 nM of the FK [431]-TA in assay buffer was added. After incubating for 30 min at room temperature, the fluorescence polarization was measured. […]

FKBP51 variant D68Y = biological target: T2, FKBP51 variant D68Y (Homo sapiens, UniProt Q13451, D68Y); assay: Competitive fluorescence polarization assay, FKBP51 D68Y; conditions: 80-100 nM FKBP51 D68Y; 1 nM FK [431]-TA tracer; 30 min room temperature; fitted as KI in competitive binding model; read-out: Kd-value (ligand binding constant, competitive fluorescence polarization)
T2 construct: made in house; host or cells: E. coli BL21 (DE3)
T2 sequence (Q13451 1-140 D68Y): T1 sequence (Q13451 1-140) with D68Y
Excerpt: as §1, §2

FKBP51 variant G64S = biological target: T3, FKBP51 variant G64S (Homo sapiens, UniProt Q13451, G64S); assay: Competitive fluorescence polarization assay, FKBP51 G64S; conditions: 10-40 nM FKBP51 G64S; 1 nM FK [431]-TA tracer; 30 min room temperature; fitted as KI in competitive binding model; read-out: Kd-value (ligand binding constant, competitive fluorescence polarization)
T3 construct: made in house; host or cells: E. coli BL21 (DE3)
T3 sequence (Q13451 1-140 G64S): T1 sequence (Q13451 1-140) with G64S
Excerpt: as §1, §2

Work on `COc1ccc(CC[C@@H](OC(=O)[C@@H]2CCCCN2C(=O)[C@H](c2cc(OC)c(OC)c(OC)c2)C2CCCCC2)c2cccc(OCC(=O)O)c2)cc1OC` [SAFit1] yielded a Kd (FKBP51 WT) of 4.8 ± 0.4 nM, a Kd (FKBP51 variant D68Y) of 0.2 ± 0.5 nM and a Kd (FKBP51 variant G64S) of 0.5 ± 0.2 nM.
